# Reference: PMC12064818, “A general assay platform to study protein pharmacology using ligand-dependent structural dynamics” (Nature Communications, 2025)
# Target: T1, FLuc-C-HiBiT (Photinus pyralis, UniProt P08659)
# T1 construct: firefly luciferase with C-terminal HiBiT tag, E. coli expressed
# Assay: biochemical
# Settings: enzyme activity, 10 uM ATP; read-out: IC50 or SDR50 (mM) / FLuc E
# T1 sequence (P08659 whole entry, looked up): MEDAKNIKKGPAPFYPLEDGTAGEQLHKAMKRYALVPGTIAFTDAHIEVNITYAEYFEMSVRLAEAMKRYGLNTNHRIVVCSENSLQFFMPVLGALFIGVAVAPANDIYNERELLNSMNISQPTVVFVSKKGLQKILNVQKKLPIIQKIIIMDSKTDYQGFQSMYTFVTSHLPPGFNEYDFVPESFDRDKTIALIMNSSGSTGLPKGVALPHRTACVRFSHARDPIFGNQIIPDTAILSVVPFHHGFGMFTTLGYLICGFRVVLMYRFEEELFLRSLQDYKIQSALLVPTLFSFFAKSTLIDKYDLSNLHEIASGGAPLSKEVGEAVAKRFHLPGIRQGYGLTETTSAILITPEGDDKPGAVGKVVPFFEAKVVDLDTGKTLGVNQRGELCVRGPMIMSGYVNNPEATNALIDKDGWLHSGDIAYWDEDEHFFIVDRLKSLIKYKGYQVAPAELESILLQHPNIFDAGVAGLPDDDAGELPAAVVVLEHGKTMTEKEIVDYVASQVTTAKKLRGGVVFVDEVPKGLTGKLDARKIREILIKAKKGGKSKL
row,SMILES,IC50
1,CCc1ccccc1NC(=O)c1cc2c(=O)[nH]c(C)cn2n1 [NCGC00453924-01],0.0157 mM
2,CN1CCC(NC(=O)C(C)(C)Oc2nn(Cc3ncccn3)c3ccccc23)CC1 [NCGC00419638-01],> 0.03 mM
3,COc1ccc(OC)c(CN2CCOc3ccc(C(=O)NCc4ccc(C)cc4)cc3C2)c1 [NCGC00426332-01],> 0.03 mM
4,Nc1nc(N2CCC3(CC2)NC(=O)CC3C(=O)O)c2nc[nH]c2n1 (centres unmarked) [NCGC00447244-01],> 0.03 mM
5,Cc1nnc(SCc2ccccc2)c2cc3sccc3n12 [NCGC00122277-01],0.014 mM
6,Cc1nn(-c2ccc(C(C)C)cc2)c(C)c1[C@@H]1C=C[C@@H](NC(=S)NCC(C)C)C1 [NCGC00391239-01],0.0286 mM
7,COc1ccc(-n2nc(C)c([C@@H]3C=C[C@@H](NC(=O)Nc4cccc(C#N)c4)C3)c2C)cc1 [NCGC00400336-01],0.018 mM
8,OCCN1CCN(c2nc(N3CCCCC3)c3cnn(-c4ccc(Cl)cc4)c3n2)CC1 [NCGC00652352-01],> 0.03 mM
9,Fc1ccc(-c2cn3cc(Cc4ccccc4)sc3n2)cc1 [NCGC00102110-01],0.000279 mM
10,CN1CCOc2nc(-c3ccc(Oc4ccccc4)cc3)ncc2C1=O [NCGC00413560-01],0.0161 mM
11,CC1(NC(=O)C2CC2)CN(Cc2nc(-c3ccccc3OCc3ccccc3)cs2)C1 [NCGC00410379-01],0.0161 mM
12,CCOc1ccc2nc(N(Cc3cccnc3)C(=O)c3cccs3)sc2c1 [NCGC00136637-01],> 0.03 mM
13,CC[n+]1c(/C=C/N(C)c2ccccc2)n(-c2ccccc2)c2ccc(-c3nc4ccccc4s3)cc21 [NCGC00165744-02],0.0176 mM
14,COc1ccc(Nc2cc3c(nc2OC)nc(CCc2ccccc2)n3C)cn1 [NCGC00417814-01],0.0202 mM
15,COc1ccc(-c2ncc3c(n2)OCCN(C)C3=O)cc1F [NCGC00413447-01],0.018 mM
16,CC(C)(C)c1ccc(C(=O)Nc2ccc(C(O)[C@H]3COCC(=O)N3Cc3ccccc3)cc2)cc1 (some centres unmarked) [NCGC00394950-01],> 0.03 mM
17,O=C(Nc1ccccc1)c1nc2c(o1)CCN(Cc1ccc(F)cc1)CC2 [NCGC00413289-01],0.018 mM
18,O=C1c2cnc(-c3ccc(F)cc3F)nc2OCCN1CC1CC1 [NCGC00413656-01],0.018 mM

row,SMILES,IC50
1,COc1ccc(-c2nc(-c3ccc(C(=O)O)cc3)no2)cc1 [NCGC00168104-02],0.000111 mM
2,COc1ccc(-c2noc([C@@H]3C[C@H](NCc4ccccn4)CN3C)n2)cc1 [NCGC00395774-01],0.0202 mM
3,Cc1cc(-c2cccc(COc3ccc4c(cnn4CC[S+](C)(=O)[O-])c3)c2)ccn1 [NCGC00418048-01],0.018 mM
4,O=C(COC(=O)c1cc(-c2cccs2)nc2ccccc12)c1ccc(Br)cc1 [NCGC00100768-01],> 0.03 mM
5,CSCC(=O)N[C@H]1CCN2C(=O)c3cc(/C=C/c4ccccc4)ccc3NC(=O)[C@H]12 [NCGC00421159-01],0.0143 mM
6,Cc1cc(C)cc(OCC(=O)Nc2ccc(-c3nc4ccccc4s3)cc2)c1 [NCGC00119151-01],> 0.03 mM
7,CCCn1c(C)cnc1CC1CCN(C(=O)C2(c3ccc(OC)cc3)CC2)C1 (centres unmarked) [NCGC00464172-01],> 0.03 mM
8,NC(=O)[C@@H]1CCCN1C(=O)c1ccc2oc(-c3cccc(F)c3)nc2c1 [NCGC00444081-01],> 0.03 mM
9,O=C(Nc1ccccc1)Nc1ccc2n(c1=O)C[C@H]1C[C@@H]2CN(C(=O)c2ccccc2)C1 [NCGC00397999-01],0.018 mM
10,CC(C)c1ccc(C2=CC(c3ccc(C(C)C)cc3)n3nnnc3N2)cc1 (centres unmarked) [NCGC00140789-01],> 0.03 mM
11,Cc1csc(NC(=O)c2ccc3c(c2)OCC(=O)N(C)C3)n1 [NCGC00418513-01],0.018 mM
12,O=C(NCCc1c[nH]cn1)c1ccc2nc(-c3ccc(F)cc3)cn2c1 [NCGC00444507-03],0.014 mM
13,CCn1c(=O)c(C(=O)Nc2ccc(C(C)=O)cc2)nc2ccccc21 [NCGC00107725-01],0.0124 mM
14,CCCCOc1nc(N)c2[nH]c(=O)n(CCCN(CCCN3CCOCC3)Cc3cccc(CC(=O)OC)c3)c2n1 [NCGC00886690-01],> 0.03 mM
15,Cn1ccc2c(C(=O)NCc3cccnc3)nc(-c3ccc(N4CCOCC4)cc3)cc21 [NCGC00411612-01],0.018 mM
16,Nc1nc(=O)c2[nH]c(=O)n(C3CC(O)C(CO)O3)c2[nH]1 (centres unmarked) [NCGC00390462-01],> 0.03 mM
17,CSc1ccc(-c2ccc3c(c2)C(=O)N2CC[C@H](NC(=O)c4cccs4)[C@H]2C(=O)N3)cc1 [NCGC00393756-01],0.0124 mM
18,COCCN1CCNc2cc(-c3cccc(N(C)C)c3)ncc2C1 [NCGC00411224-01],0.0161 mM

# Other lines, results leading:
row,IC50,SMILES
1,0.0036 mM,O=c1c2nc(N3CCC(c4ccccc4)CC3)ccc2ncn1C1CC1 [NCGC00414736-01]
2,0.0111 mM,COc1ccc(-c2ccc3ncc(Nc4cc(F)cc(N5CCOCC5)c4)n3n2)cc1OC [NCGC00412497-01]
3,0.00989 mM,COC(=O)c1ccc2c(c1)C(=Cc1cc(Br)c(O)c(Br)c1)C(=O)N2 [NCGC00242004-02]
4,0.000989 mM,COc1ccc(NC(=O)Nc2cccc(-c3ccc(N4CCCCC4)nn3)c2)c(OC)c1 [NCGC00427636-01]
5,0.00989 mM,Cc1cc2nc(-c3cccc(NC(=O)COc4ccc(C(C)C)cc4)c3)oc2cc1C [NCGC00102495-01]
6,0.00351 mM,COc1ccc(NC(=O)Nc2ccc(C)n(CC(=O)NCC(C)C)c2=O)cc1 [NCGC00430836-01]
7,0.00351 mM,COC(=O)c1cccc(-c2noc(-c3ccccc3F)n2)c1 [NCGC00183594-01]
8,0.00157 mM,COc1ccc(-c2nc3cc(F)ccc3s2)cc1OC [NCGC00344018-01]
9,0.000624 mM,CCCc1nn2cc(-c3ccc(C)c(C)c3)nc2s1 [NCGC00117454-01]
10,0.007 mM,O=C(NCCc1ccccc1Cl)c1ccc2c(c1)nc1n2CCOC1 [NCGC00133432-01]
11,0.0111 mM,COc1cccc(CC(=O)NCCn2ccn3nc(-c4ccc(C)c(C)c4)cc3c2=O)c1 [NCGC00457016-01]
12,0.0007 mM,CCOc1ccc(-c2cc3c(=O)n(CCNC(=O)c4cccc(C#N)c4)ccn3n2)cc1 [NCGC00456938-01]
13,0.00556 mM,CCOc1ccc(-c2cc3c(=O)n(CCNC(=O)c4cccc5[nH]ccc45)ccn3n2)cc1 [NCGC00456956-01]
14,0.0007 mM,CC1CCCN(c2ncnc3c2cnn3-c2ccc(F)cc2)C1 (centres unmarked) [NCGC00139051-01]
15,0.00989 mM,O=C(c1cc(-c2ccc(F)cc2)nc2ccccc12)N1CCC(c2nc(C3CCOCC3)no2)C1 (centres unmarked) [NCGC00453669-01]
16,0.00279 mM,O=C(Nc1cccc(-c2ccc(N3CCOCC3)nn2)c1)Nc1ccccc1F [NCGC00427598-01]
17,0.00508 mM,CNC(=O)c1cccc(-c2cnc(Nc3cccnc3OC)c3c2CCO3)c1 [NCGC00412753-01]
18,0.00989 mM,CCN1c2cc(C(=O)Nc3ccc4c(c3)OCCO4)ccc2C(=O)N2CCCCC21 (centres unmarked) [NCGC00452503-01]
19,0.00989 mM,Cn1c(=O)c2ccnn2c2ccc(C(=O)Nc3ccc4c(c3)OCCO4)cc21 [NCGC00470050-01]
20,0.0111 mM,Cc1ccc(-c2nc(C(=O)N3CCN(c4ccccc4)CC3)no2)cc1 [NCGC00447113-01]
21,0.000624 mM,Cc1ccc2nc(-c3ccc(NC(=O)CSc4nnc(C)s4)cc3)sc2c1 [NCGC00598135-01]
22,0.00989 mM,COc1ccc(/C=C/c2ccc3c(c2)C(=O)N2CC[C@H](NC(=O)COCC(=O)O)[C@H]2C(=O)N3)cc1 [NCGC00421238-01]
23,0.00624 mM,CCOC(=O)c1cccc(Nc2nc(-c3ccccc3)no2)c1 [NCGC00422292-01]
24,0.007 mM,Cc1c(NC(=O)c2ccc(I)o2)cccc1-c1nc2ccccc2s1 [NCGC00595010-01]

row,IC50,SMILES
1,0.0124 mM,O=C(Nc1ccc([C@H]2OCC(=O)N(C3CCOCC3)[C@@H]2CO)cc1)c1ccc(C(F)(F)F)cc1 [NCGC00391115-01]
2,0.00785 mM,COc1ccc(-c2cc(N3CCCC(NC(=O)c4cccc(OC)c4)C3)[nH]n2)cc1 (centres unmarked) [NCGC00437636-01]
3,0.00556 mM,CC(C)Cc1noc(-c2ccc(N3CCC(O)CC3)nc2)n1 [NCGC00434953-01]
4,0.00495 mM,O=C(Nc1cccc(-c2ccc(N3CCOCC3)nn2)c1)Nc1cccc(C(F)(F)F)c1 [NCGC00427594-01]
5,0.00989 mM,COc1ccc(N2CCN(C(=O)c3noc(-c4ccc(C)cc4)n3)CC2)cc1 [NCGC00447127-01]
6,0.00989 mM,CCN1c2cc(C(=O)Nc3ccc4c(c3)OCCO4)ccc2C(=O)N2CCCCCC21 (centres unmarked) [NCGC00452264-01]
7,0.0124 mM,CCN(CC)[S+](=O)([O-])c1ccc2nc(NC(=O)c3cccnc3)sc2c1 [NCGC00134045-01]
8,0.0111 mM,Cc1cnc(CCNC(=O)Nc2ccc3c(c2)OCCO3)n1C1CC1 [NCGC00469576-01]
9,0.00718 mM,COCCN1CCC2(C1)CN(C)c1ccc(C(=O)Nc3ccc(F)cc3)cc12 (centres unmarked) [NCGC00419287-01]
10,0.00989 mM,CC(C)n1cnnc1CC1CCN(C(=O)Nc2ccc3c(c2)OCCO3)CC1 [NCGC00456228-01]
11,0.000176 mM,Nc1c(C(=O)Nc2ccc(C(=O)O)cc2)sc2nc3c(cc12)CCCC3 [NCGC00100367-01]
12,0.0124 mM,O=C(CCCc1ccccc1)N1CCC2(CC1)CC(O)CCO2 (centres unmarked) [NCGC00452928-01]
13,0.0124 mM,CC1CCC(NC(=O)c2noc(-c3ccccc3F)n2)CC1 (centres unmarked) [NCGC00447353-01]
14,0.007 mM,CC(=O)Nc1cc(-c2nc3ccccc3s2)ccc1C [NCGC00098099-01]
15,0.00989 mM,Cc1ccc(-c2cc(C(=O)O)n(C)c2)cc1 [NCGC00432669-01]
16,0.00111 mM,Cc1ccc(NC(=O)Nc2ccc(C)n(CC(=O)NCC(C)C)c2=O)cc1 [NCGC00430796-01]
17,0.00279 mM,c1ccc(-c2noc(-c3ccc(OC4CNC4)cc3)n2)cc1 [NCGC00441173-01]
18,0.00568 mM,CN(c1ccccc1)c1ccc2ncn(C3CC3)c(=O)c2n1 [NCGC00414800-01]
19,0.00111 mM,O=C(NCCc1ccccc1Cl)c1ccc2c(c1)nc1n2CCCCC1 [NCGC00133356-01]
20,0.00157 mM,COc1ccc(-c2noc(Nc3ccc4c(c3)OCCO4)n2)cc1 [NCGC00422336-01]
21,0.00805 mM,COc1ccc(-c2ncc3c(n2)OCCN(CC2CC2)C3=O)cc1 [NCGC00413552-01]
22,0.00881 mM,CN1CCN(c2ccc(-c3cccc(NC(=O)C4CCCCC4)c3)nn2)CC1 [NCGC00427550-01]
23,0.0111 mM,Cc1c(Cl)cccc1-n1nnc(-c2nc(-c3ccc4c(c3)OCO4)no2)c1C [NCGC00128638-01]
